Values belong to the compound of their own block, whether it stands above or below them.
Test: solvent given as SMILES

Compound: CCOC(=O)/C(C#N)=C\c1cn(-c2ccccc2)nc1-c1ccccc1
emission maximum (in C1CCOC1): 429 nm | emission maximum (in C1COCCO1): 408 nm | emission maximum (in CCO): 423 nm | emission maximum (in CCOC(C)=O): 427 nm | emission maximum (in CN(C)C=O): 434 nm | emission maximum (in CO): 434 nm | emission maximum (in CS(C)=O): 440 nm | emission maximum (in Cc1ccccc1): 407 nm | emission maximum (in ClC(Cl)Cl): 431 nm | emission maximum (in ClCCl): 428 nm

Compound: COc1ccc(C2=C(c3ccc(C)cc3)C(c3ccccc3)=[N+]3C2=Nc2c(-c4ccc(OC)cc4)c(-c4ccc(C)cc4)c(-c4ccccc4)n2[B-]3(F)F)cc1
emission maximum (in Cc1ccccc1): 709 nm

Compound: C[Si](C)(C)c1cccc2c(C#N)cccc12
emission maximum (in C1CCCCC1): 333 nm

Compound: Cc1nnc(-c2cc(-c3nnc(C)o3)c(-n3c4ccccc4c4ccccc43)cc2-n2c3ccccc3c3ccccc32)o1
emission maximum (in Cc1ccccc1): 444 nm | emission maximum (in O=P(c1ccccc1)(c1ccccc1)c1ccccc1Oc1ccccc1P(=O)(c1ccccc1)c1ccccc1): 448 nm

Compound: [NH3+]c1cc([NH3+])cc(-c2[nH+]c3ccccc3s2)c1
emission maximum (in O): 460 nm

Compound: COOCc1noc(-c2ccccc2)c1Cl
emission maximum (in C1CCCCC1): 345 nm

Compound: COC(=O)c1cc(=O)n(C)c2cc(-c3cc4c5c(c3)CCCN5CCC4)sc12
emission maximum (in C1CCOC1): 502 nm | emission maximum (in CC#N): 511 nm | emission maximum (in CCO): 508 nm | emission maximum (in CN(C)C=O): 509 nm | emission maximum (in CO): 493 nm | emission maximum (in CS(C)=O): 508 nm | emission maximum (in Cc1ccccc1): 529 nm | emission maximum (in ClC(Cl)Cl): 580 nm | emission maximum (in ClCCl): 605 nm

Compound: O=C([O-])c1cc2c(ccc3ccccc32)oc1=O
emission maximum (in O): 428 nm

Compound: CCOC(=O)COc1ccc(/C=C/c2c(CC)c(C)c3n2[B-](F)(F)[N+]2=C(c4[nH]c(C)c(CC)c4C)c4ccccc4C2=C3C)cc1
emission maximum (in C1CCOC1): 709 nm | emission maximum (in CC#N): 707 nm | emission maximum (in CCCCCC): 698 nm | emission maximum (in CO): 711 nm | emission maximum (in Cc1ccccc1): 709 nm | emission maximum (in ClCCl): 714 nm

Compound: CN(C)c1ccc(/C=C/c2ccncn2)cc1
emission maximum (in ClCCl): 488 nm

Compound: CCNc1cc2oc(=O)cc(C(F)(F)F)c2cc1C
emission maximum (in CC#N): 481 nm

Compound: O=C1O[B-]2(OC1=O)OC(c1ccc3ccccc3c1)=CC(c1ccc3ccccc3c1)=[O+]2
emission maximum (in CC#N): 550 nm | emission maximum (in ClC(Cl)(Cl)Cl): 451 nm

Compound: O=C1CCCc2c1[nH]c1cc3c(cc21)OCO3
emission maximum (in C1CCOC1): 403.84 nm | emission maximum (in CC#N): 399.42 nm | emission maximum (in CCCCCCO): 430.73 nm | emission maximum (in CCO): 437.63 nm | emission maximum (in CCOC(C)=O): 388.9 nm | emission maximum (in CS(C)=O): 403.54 nm | emission maximum (in O): 463.6 nm | emission maximum (in c1ccccc1): 384.12 nm

Compound: N#Cc1nn(-c2c(Cl)cccc2Cl)nc1N1CCCC1
emission maximum (in CC#N): 418 nm

Compound: F[B-]1(F)OC(c2ccccc2)=Cc2ccc3ccccc3[n+]21
emission maximum (in ClC(Cl)Cl): 438 nm | emission maximum (in ClCCl): 441 nm

Compound: Cc1cn2cc(-c3ccc([N+](=O)[O-])cc3)[n-][n+]2c1
emission maximum (in ClCCl): 575 nm

Compound: Cc1ccccc1/C(C#N)=C/c1ccc(N(C)C)cc1
emission maximum (in C1CCOC1): 484 nm | emission maximum (in C1COCCO1): 476 nm | emission maximum (in CC#N): 427 nm | emission maximum (in CCCCCC): 431 nm | emission maximum (in CCCCCCC): 433 nm | emission maximum (in CCCCCO): 495 nm | emission maximum (in CCCCO): 502 nm | emission maximum (in CCCO): 505 nm | emission maximum (in CCO): 509 nm | emission maximum (in CCOC(C)=O): 490 nm | emission maximum (in CN(C)C=O): 456 nm | emission maximum (in CO): 450 nm | emission maximum (in CS(C)=O): 453 nm | emission maximum (in Cc1ccccc1): 464 nm | emission maximum (in ClC(Cl)Cl): 481 nm

Compound: c1ccc(N2c3ccc4ccccc4c3-c3c4ccccc4cc[n+]3[B-]2(c2ccccc2)c2ccccc2)cc1
emission maximum (in Cc1ccccc1): 623 nm

Compound: N#Cc1cc2sccc2c2c1ccc1ccccc12
emission maximum (in ClC(Cl)Cl): 382 nm

Further lines, results first:

emission maximum (in C1CCOC1): 455.01 nm | emission maximum (in CC#N): 483.88 nm | emission maximum (in CCCCCC): 415 nm
Compound: CC(C)(C)c1cc2ccc3cc(C(C)(C)C)cc4c(N(c5ccccc5)c5ccccc5)cc(c1)c2c34

emission maximum (in C1CCOC1): 416 nm
Compound: C(=C\c1cc2ccccc2c2ccccc12)/c1cc2ccccc2c2ccccc12

emission maximum (in CCO): 435 nm
Compound: CCOC(=O)/C=C/c1cc2ccc(-c3cn(Cc4ccccc4)nn3)cc2oc1=O

emission maximum (in ClC(Cl)Cl): 542 nm
Compound: CCCCCCN1C(=O)c2cccc3c(-c4ccc(-c5ccc(-c6ccc7c8c(cccc68)C(=O)N(CCCCCC)C7=O)s5)s4)ccc(c23)C1=O

emission maximum (in ClC(Cl)Cl): 651 nm
Compound: O=C1c2ccc3c4c(-c5ccccc5)cc5c6c(ccc(c7c(-c8ccccc8)cc(c2c37)C(=O)N1C1CCCCC1)c64)C(=O)N(C1CCCCC1)C5=O

emission maximum (in ClC(Cl)Cl): 408 nm
Compound: N#Cc1cc2ccc(C(F)(F)F)cc2c2c1ccc1ccccc12

emission maximum (in C1CCOC1): 596 nm | emission maximum (in CC#N): 620 nm | emission maximum (in CCO): 584 nm | emission maximum (in CO): 564 nm | emission maximum (in ClCCl): 588 nm
Compound: O=C1C2=C(O[B-](F)(F)[n+]3c2ccc2ccccc23)c2cccc3c(N4CCOCC4)ccc1c23

emission maximum (in ClC(Cl)Cl): 439 nm
Compound: CO[Si](c1c2ccccc2cc2ccccc12)(c1c2ccccc2cc2ccccc12)c1c2ccccc2cc2ccccc12

emission maximum (in ClCCl): 648 nm | emission maximum (in O): 658 nm
Compound: CC[N+](CC)=c1ccc2cc3c(=O)oc4cc5c(cc4c3oc-2c1)CCCN5C

emission maximum (in ClCCl): 741 nm
Compound: CC(C)(C)c1cc(-c2c3cc(c(-c4cc(C(C)(C)C)cc(C(C)(C)C)c4)c4ccc([nH]4)c(-c4ccc([N+](=O)[O-])cc4)c4nc(c(-c5ccc([N+](=O)[O-])cc5)c5ccc2[nH]5)C=C4)N=C3)cc(C(C)(C)C)c1

emission maximum (in C1CCOC1): 444 nm | emission maximum (in CC#N): 450 nm | emission maximum (in CO): 452 nm | emission maximum (in ClCCl): 447 nm
Compound: C(=C\c1nc2ccccc2[nH]1)/c1ccc(-c2nc3c4cccnc4c4ncccc4c3[nH]2)cc1

emission maximum (in C1CCCCC1): 429 nm
Compound: c1cc2c3c(c1)OCCCCCCOc1cccc(c1-c1c4ccccc4c-3c3ccccc13)OCCCCCCO2

emission maximum (in ClCCl): 435 nm
Compound: COc1ccc(-c2cnc(/C=C/c3ccc(OC)c(OC)c3)o2)cc1

emission maximum (in ClC(Cl)Cl): 565 nm
Compound: N#Cc1nc(N(Cc2ccccc2Br)Cc2ccccc2Br)c(C#N)nc1N(Cc1ccccc1Br)Cc1ccccc1Br

emission maximum (in CCO): 678 nm | emission maximum (in CO): 676 nm | emission maximum (in CS(C)=O): 668 nm | emission maximum (in O): 659 nm
Compound: CN1/C(=C/C=C(/C=C/c2sc3ccccc3[n+]2C)c2ccc(C(F)(F)F)cc2)Sc2ccccc21

emission maximum (in ClCCl): 463 nm
Compound: C[Si]1(C)c2cc(-c3ccc(-c4cccs4)s3)ccc2C=Cc2ccc(-c3ccc(-c4cccs4)s3)cc21

emission maximum (in C1CCCCC1): 475.96 nm | emission maximum (in C1CCOC1): 505.05 nm | emission maximum (in CN(C)C=O): 521.92 nm | emission maximum (in CO): 529.1 nm | emission maximum (in ClC(Cl)Cl): 505.05 nm | emission maximum (in c1ccccc1): 483.09 nm
Compound: CC1(C)Cc2c(c3ccccc3c3nc4ccccc4nc23)O1

emission maximum (in C1CCOC1): 455 nm
Compound: CC(=O)c1ccc(-c2cnc3nn4ccccc4c3n2)cc1

emission maximum (in CCCCCC): 553 nm
Compound: CC(C)[Si](C#Cc1c2ccccc2c(C#C[Si](C(C)C)(C(C)C)C(C)C)c2nc3c(ccc4ccccc43)nc12)(C(C)C)C(C)C

emission maximum (in CO): 389 nm
Compound: COc1ccc(-c2nc(-c3ccc(OC)cc3)c(-c3ccc(OC)cc3)[nH]2)cc1

emission maximum (in CS(C)=O): 441 nm
Compound: Cc1ccc(C2C3=C(CCCC3=O)Nc3c2c(=O)oc2ccccc32)cc1 (stereo unspecified)

emission maximum (in C1CCCCC1): 390 nm
Compound: CCC(C)(C)c1ccc(-c2ccc3c(c2)C(CCOC)(CCOC)c2cc4c(cc2-3)C(CCOC)(CCOC)c2cc(-c3ccc(C(C)(C)CC)cc3)ccc2-4)cc1

emission maximum (in ClC(Cl)Cl): 475 nm
Compound: COc1ccc2c3ccc(OC)cc3c3cc4c(C)cc(=O)oc4cc3c2c1

From the Deep4Chem optical property database
